Test results taken from PubChem BioAssay (NCI).
Where “and” joins values, the source holds several entries; their conditions need not be identical. Equal entries are not always repeated.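 Interpolation was linear, between the two tested concentrations surrounding the appropriate level; five concentrations were tested over 48 hours in 96-well plates. GI50: concentration for 50% inhibition of growth. Definition used: TGI = concentration required for complete inhibition of growth.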

Legend:
Test in all cases: DTP human tumour cell line panel, 48 h
A549 NSCLC = tested on: A549 NSCLC
ACHN renal = tested on: ACHN renal
CAKI-1 renal = tested on: CAKI-1 renal
HS 578T breast = tested on: HS 578T breast
NCI-H460 lung = tested on: NCI-H460 lung
PC-3 prostate = tested on: PC-3 prostate
SK-MEL-5 melanoma = tested on: SK-MEL-5 melanoma
SNB-75 CNS = tested on: SNB-75 CNS
UACC-62 melanoma = tested on: UACC-62 melanoma

C/C=C/[C@@]1(OC(=O)c2ccccc2)C[C@@H]2CCCC[C@@H]21
TGI (A549 NSCLC): 36.7 µM
TGI (ACHN renal): 31.5 µM
TGI (CAKI-1 renal): 31.4 µM
TGI (HS 578T breast): 27.2 µM
TGI (NCI-H460 lung): 34.2 µM
TGI (PC-3 prostate): 37 µM
TGI (SK-MEL-5 melanoma): 29.3 µM
TGI (SNB-75 CNS): 27.3 µM
TGI (UACC-62 melanoma): 32.9 µM

CN(C)c1nc2sc3c(c2c(=O)o1)CCCC3
TGI (A549 NSCLC): > 100 µM
TGI (ACHN renal): > 100 µM
TGI (CAKI-1 renal): > 100 µM
TGI (HS 578T breast): > 100 µM
TGI (NCI-H460 lung): > 100 µM
TGI (PC-3 prostate): > 100 µM
TGI (SK-MEL-5 melanoma): > 100 µM
TGI (SNB-75 CNS): 95.2 µM
TGI (UACC-62 melanoma): > 100 µM

O=C(CP(c1ccccc1)c1ccccc1)c1cccc(C(=O)CP(c2ccccc2)c2ccccc2)c1
TGI (A549 NSCLC): > 100 µM
TGI (ACHN renal): > 100 µM
TGI (CAKI-1 renal): > 100 µM
TGI (HS 578T breast): > 100 µM
TGI (NCI-H460 lung): > 100 µM
TGI (PC-3 prostate): > 100 µM
TGI (SK-MEL-5 melanoma): > 100 µM
TGI (SNB-75 CNS): > 100 µM
TGI (UACC-62 melanoma): > 100 µM

C1CC2=C(C1)[Se]C(=C1Sc3nsnc3S1)[Se]2
TGI (A549 NSCLC): > 100 µM
TGI (ACHN renal): > 100 µM
TGI (CAKI-1 renal): > 100 µM
TGI (HS 578T breast): > 100 µM
TGI (NCI-H460 lung): > 100 µM
TGI (PC-3 prostate): > 100 µM
TGI (SK-MEL-5 melanoma): > 100 µM
TGI (SNB-75 CNS): > 100 µM
TGI (UACC-62 melanoma): > 100 µM

CCOC(=O)c1cccc(NC(=O)CCl)c1
TGI (A549 NSCLC): 29.8 µM
TGI (ACHN renal): 9.19 µM
TGI (CAKI-1 renal): 3.42 µM
TGI (HS 578T breast): 11 µM
TGI (NCI-H460 lung): 5.37 µM
TGI (PC-3 prostate): 18.1 µM
TGI (SK-MEL-5 melanoma): 3.69 µM
TGI (SNB-75 CNS): 9.22 µM
TGI (UACC-62 melanoma): 6.85 µM

O=C1c2ccccc2C2CNC1(O)c1ccccc12 (configuration not stated)
TGI (A549 NSCLC): > 100 µM
TGI (ACHN renal): > 100 µM
TGI (CAKI-1 renal): > 100 µM
TGI (HS 578T breast): > 100 µM
TGI (NCI-H460 lung): > 100 µM
TGI (PC-3 prostate): > 100 µM
TGI (SK-MEL-5 melanoma): > 100 µM
TGI (SNB-75 CNS): > 100 µM
TGI (UACC-62 melanoma): > 100 µM

COc1c2cc([N+](=O)[O-])cc1CNC(=O)CN1CCOCCOCCN(CCOCCOCC1)CC(=O)NC2
TGI (A549 NSCLC): > 100 µM
TGI (ACHN renal): > 100 µM
TGI (CAKI-1 renal): > 100 µM
TGI (HS 578T breast): > 100 µM
TGI (NCI-H460 lung): > 100 µM
TGI (PC-3 prostate): > 100 µM
TGI (SK-MEL-5 melanoma): > 100 µM
TGI (SNB-75 CNS): > 100 µM
TGI (UACC-62 melanoma): > 100 µM

Cc1ccc(C)n1-c1ccccc1C1SCCCS1
TGI (A549 NSCLC): > 100 µM
TGI (ACHN renal): > 100 µM
TGI (CAKI-1 renal): > 100 µM
TGI (HS 578T breast): > 100 µM
TGI (NCI-H460 lung): > 100 µM
TGI (PC-3 prostate): > 100 µM
TGI (SK-MEL-5 melanoma): > 100 µM
TGI (SNB-75 CNS): > 100 µM
TGI (UACC-62 melanoma): > 100 µM

O=C1C2CCCCC2C(=O)N1n1c(Cc2ccc(Cl)cc2)n[nH]c1=O (configuration not stated)
TGI (A549 NSCLC): > 100 µM
TGI (ACHN renal): > 100 µM
TGI (CAKI-1 renal): > 100 µM
TGI (HS 578T breast): > 100 µM
TGI (NCI-H460 lung): > 100 µM
TGI (PC-3 prostate): > 100 µM
TGI (SK-MEL-5 melanoma): > 100 µM
TGI (SNB-75 CNS): > 100 µM
TGI (UACC-62 melanoma): > 100 µM

CCCC(=O)O
TGI (A549 NSCLC): > 18700 µM
TGI (ACHN renal): 14500 µM
TGI (CAKI-1 renal): 12000 µM
GI50 (HS 578T breast): 4950 µM
TGI (HS 578T breast): > 18700 µM
TGI (NCI-H460 lung): > 18700 µM
TGI (PC-3 prostate): > 18700 µM
GI50 (SK-MEL-5 melanoma): 2410 µM
TGI (SK-MEL-5 melanoma): 6100 µM
TGI (SNB-75 CNS): > 18700 µM
TGI (UACC-62 melanoma): 4930 µM

c1ccc(CNC2CC(NCc3ccccn3)CC(NCc3ccccn3)C2)nc1 (configuration not stated)
TGI (A549 NSCLC): 6.47 µM and 6.12 µM
TGI (ACHN renal): 47.3 µM and 25 µM and 35.7 µM
GI50 (CAKI-1 renal): 4.6 µM and 16.3 µM and 4.35 µM
TGI (CAKI-1 renal): 28 µM and 25 µM and 17.2 µM
TGI (HS 578T breast): 53.3 µM and 25 µM and 85.5 µM
TGI (NCI-H460 lung): 7.07 µM and 12 µM
GI50 (PC-3 prostate): 2.24 µM and 4.59 µM and 2.02 µM
TGI (PC-3 prostate): 5.68 µM and 8.75 µM and 3.98 µM
GI50 (SK-MEL-5 melanoma): 1.88 µM
TGI (SK-MEL-5 melanoma): 5.52 µM and 7.49 µM and 3.68 µM
TGI (SNB-75 CNS): 9.59 µM and 16 µM
GI50 (UACC-62 melanoma): 2.3 µM and 4.72 µM and 1.83 µM
TGI (UACC-62 melanoma): 5.27 µM and 12.1 µM and 3.53 µM

O=C(O)[C@H]1[C@@H](C2CCCCC2)O[C@@H](C2CCCCC2)O[C@H]1C(F)(F)F
TGI (A549 NSCLC): 42.4 µM
TGI (ACHN renal): 32.7 µM
TGI (CAKI-1 renal): 36.4 µM
TGI (HS 578T breast): 58.8 µM
TGI (NCI-H460 lung): 48.4 µM
TGI (PC-3 prostate): 32.1 µM
TGI (SK-MEL-5 melanoma): 44.4 µM
TGI (SNB-75 CNS): 38.2 µM
TGI (UACC-62 melanoma): 41.2 µM

COc1ccc2oc(=N)c(C(=O)Nc3cccc4ccccc34)cc2c1
TGI (A549 NSCLC): > 100 µM
TGI (ACHN renal): > 100 µM
TGI (CAKI-1 renal): > 100 µM
TGI (HS 578T breast): 72.1 µM
TGI (NCI-H460 lung): > 100 µM
TGI (PC-3 prostate): 31.1 µM
TGI (SK-MEL-5 melanoma): > 100 µM
TGI (SNB-75 CNS): 32.9 µM
TGI (UACC-62 melanoma): 17.1 µM

O=C1Oc2ccccc2C(=O)/C1=C/N1C(=O)N/C(=C\c2ccccc2O)C1=O
TGI (A549 NSCLC): > 100 µM
TGI (ACHN renal): > 100 µM
TGI (CAKI-1 renal): > 100 µM
TGI (HS 578T breast): > 100 µM
TGI (NCI-H460 lung): > 100 µM
TGI (PC-3 prostate): > 100 µM
TGI (SK-MEL-5 melanoma): > 100 µM
TGI (SNB-75 CNS): > 100 µM
TGI (UACC-62 melanoma): > 100 µM

CC(C)(C)OC(=O)CN1CCNCCNCC1
TGI (A549 NSCLC): > 100 µM
TGI (ACHN renal): > 100 µM
TGI (CAKI-1 renal): > 100 µM
TGI (HS 578T breast): > 100 µM
TGI (NCI-H460 lung): > 100 µM
TGI (PC-3 prostate): > 100 µM
TGI (SK-MEL-5 melanoma): > 100 µM
TGI (SNB-75 CNS): > 100 µM
TGI (UACC-62 melanoma): > 100 µM

O=c1[nH]c(=O)n(C2CC(O)C(CO)O2)cc1I (configuration not stated)
TGI (A549 NSCLC): > 100 µM
TGI (ACHN renal): > 100 µM
TGI (CAKI-1 renal): > 100 µM
TGI (HS 578T breast): > 100 µM
TGI (NCI-H460 lung): > 100 µM
TGI (PC-3 prostate): > 100 µM
TGI (SK-MEL-5 melanoma): > 100 µM
TGI (SNB-75 CNS): > 100 µM
TGI (UACC-62 melanoma): > 100 µM

O=C(CSCC(=O)N/N=C/c1cc(I)cc(I)c1O)N/N=C/c1cc(I)cc(I)c1O
TGI (A549 NSCLC): > 100 µM
TGI (ACHN renal): 32.2 µM
TGI (CAKI-1 renal): > 100 µM
TGI (HS 578T breast): 39 µM
TGI (NCI-H460 lung): 82 µM
TGI (PC-3 prostate): > 100 µM
TGI (SK-MEL-5 melanoma): 24.8 µM
TGI (SNB-75 CNS): 19.5 µM
TGI (UACC-62 melanoma): 31.9 µM

COC(=O)c1cn(CCCC(=O)O)nn1
TGI (A549 NSCLC): > 100 µM
TGI (ACHN renal): > 100 µM
TGI (CAKI-1 renal): > 100 µM
TGI (HS 578T breast): > 100 µM
TGI (NCI-H460 lung): > 100 µM
TGI (PC-3 prostate): > 100 µM
TGI (SK-MEL-5 melanoma): > 100 µM
TGI (SNB-75 CNS): > 100 µM
TGI (UACC-62 melanoma): > 100 µM

C=C(C)[C@@H]1CC[C@]2(C(=O)O)CC[C@]3(C)[C@H](CC[C@@H]4[C@@]5(C)CC(=O)C(C)(C)[C@@H]5CC[C@]43C)[C@@H]12
TGI (A549 NSCLC): > 25 µM
TGI (ACHN renal): > 25 µM
TGI (CAKI-1 renal): > 25 µM
TGI (HS 578T breast): > 25 µM
TGI (NCI-H460 lung): 10.7 µM
TGI (PC-3 prostate): 19.7 µM
TGI (SK-MEL-5 melanoma): 13.3 µM
TGI (SNB-75 CNS): > 25 µM
TGI (UACC-62 melanoma): 6.66 µM
